Columns and labels:
[1] = target: T1, cyclin D1-cdk4 (Homo sapiens, UniProt P11802); experiment: Assay of Cyclin D1-cdk4 kinase activity with the ING peptide as substrate; type: biochemical; conditions: 200 uM ING peptide, 300 uM ATP, 60 minutes, room temperature
Description: Assay of Cyclin D1-cdk4 kinase activity with the ING Peptide as Substrate
The cyclin D1-cdk4 kinase activity of a compound was assayed by preparing a 100 ul reaction at the following concentrations: 35 mM Hepes pH 7.0, 10 mM MgCl2, 300 uM ATP, 200 uM ING peptide, 1.0 uCi of γ-^33P-ATP, 4.34 ug of cyclin D-cdk4 enzyme, 4% DMSO, and various concentrations of inhibitor. The reaction was incubated at room temperature (about 74° F.) for 60 minutes, and then terminated by the addition of 100 ul of 10% phosphoric acid. Next, the reaction was filtered through a Millipore Multiscreen-PH Plate—Catalog number MAPH NOB 10, and the plate was washed 2 times with 320 ul each of 0.5% phosphoric acid, followed by the addition of 100 ul of scintillation fluid and quantitation on a Packard Instruments, Top Count, scintillation counter.

[2] = system: HCT-116 and NCI H460 cell lines; experiment: Cell cycle analysis using flow cytometry; type: cell-based; conditions: compound at 1x IC50 and 3x IC50, 24 hours, DNA histogram analysis
Description: Cell Cycle Analysis Using Flow Cytometry
The HCT-116 and NCI H460 cell lines were seeded in 75 cm^2 flasks at 5×10^5 cells/25 ml RPMI 1640 medium containing 10% dialyzed fetal bovine serum. They were incubated for 24 hours. […] The cells were subsequently harvested and the protocol (Robinson, J. P. and Darzynkiewicz, Z. Current Protocols in Cytometry. 1997) for staining was followed. DNA histogram analysis was performed using ModFit LT(Verity House).

[3] = system: Ser-780 pRb phosphorylation in HCT116 cells; experiment: Inhibition of Rb phosphorylation assay; type: cell-based, Human; conditions: 1x, 2x and 3x IC50, 24 hours, immunoblot
Description: Inhibition of Rb Phosphorylation Assay
Human HCT116 colon carcinoma cell line was purchased from American Tissue Culture Collection (Rockville, Md.) and maintained as monolayer in RPMI-1640 with L-Glutamine and 25 mM HEPES supplemented with 10% fetal bovine serum in a 37° C. incubator with a 10% CO2 atmosphere. The detection of mycoplasm in cultured cells was performed using Mycoplasma Rapid Detection System (TaKaRa Shuzo Co. Ltd., Shiga, Japan) every 2-3 months and the cells were found consistently negative throughout these experiments. The Rb phosphorylation assay was done be plating 4×10^5 cells/well in 6-well plates. […] At the end of the incubation period the mediumj was removed and the cells were washed twice with cold PBS containing 1 mM sodium orthovanadate (Na3VO4). […] Protein concentration was determined by the Bio-Rad DC protein assay (Bio-Rad, Hercules, Calif.). […] Proteins were detected by capturing image of the membrane using Quantity One Software on a Fluor-S multi-Imager (Bio-Rad, Hercules, Calif.) in a linear range. Specific bands were quantified using Quantity One Software. […] Results are expressed as a percentage inhibition of Ser-780 pRb phosphorylation in drug treated cells versus control DMSO treated cells.

[4] = system: HCT-116 or NCI H460 cells; experiment: Cell growth inhibition assay (MTT); type: cell-based; conditions: 72 h drug exposure
Description: Cell Growth Inhibition Assay The MTT assay was used to measure growth inhibitory activity (Schultz, R. M., et. al. Oncology Res. 5, 223-228, 1993). […] Basically, 1000 HCT-116 or NCI H460 cells were added per well to 96-well flat-bottom plates in 100-ul RPMI 1640 medium containing 10% dialyzed fetal bovine serum. The plates were incubated for 24 h prior to addition of test compounds. A stock solution (10 mM) was prepared in DMSO and serially diluted in medium. Compound dilutions were added to triplicate wells, and the plates were incubated for 72 hours.

[5] = system: protein kinase A; conditions: cited from earlier work
[6] = system: protein kinase C; conditions: cited from earlier work
[7] = target: T1, cyclin D1-cdk4; experiment: Assay of Cyclin D1-cdk4 kinase activity with the Rb21 protein as substrate; type: biochemical; conditions: 5 ug Rb21 protein, 30 uM ATP, 60 minutes, room temperature; read-out: Kinase Activity with Rb2l
Description: Assay of Cyclin D1-cdk4 Kinase Activity with the Rb21 Protein as Substrate
The cyclin D1-cdk4 kinase activity of a compound was assayed by preparing a 100 ul reaction at the following concentrations: 20 mM Hepes pH 7.0, 10 mM MgCl2, 30 uM ATP, 5 ug of Rb21 protein (Santa Cruz Biotech, Catalog # sc-4112), 1.0 uCi of γ-^33P-ATP, 1.09 ug of cyclin D-cdk4 enzyme, 4% DMSO, and various concentrations of inhibitor. The reaction was incubated at room temperature (about 74° F.) for 60 minutes, and then terminated by the addition of 100 ul of 25% trichloroacetic acid. Next, the reaction was filtered through a Millipore Multiscreen-FC Plate—Catalog number MAFC NOB 10, and the plate was washed 2 times with 320 ul each of 10% trichloroacetic acid, followed by the addition of 100 ul of scintillation fluid and quantitation on a Packard Instruments, Top Count, scintillation counter.

T1 sequence (P11802 whole entry): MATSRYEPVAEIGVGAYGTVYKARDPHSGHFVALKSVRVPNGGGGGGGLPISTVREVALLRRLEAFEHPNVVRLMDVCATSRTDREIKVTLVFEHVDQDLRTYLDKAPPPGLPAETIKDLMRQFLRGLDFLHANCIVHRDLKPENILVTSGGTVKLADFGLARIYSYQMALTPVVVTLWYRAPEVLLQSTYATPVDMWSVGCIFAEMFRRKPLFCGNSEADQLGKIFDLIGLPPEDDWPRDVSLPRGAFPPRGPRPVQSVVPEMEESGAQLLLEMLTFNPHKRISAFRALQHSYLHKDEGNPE
T1 sequence (P24385 whole entry partner): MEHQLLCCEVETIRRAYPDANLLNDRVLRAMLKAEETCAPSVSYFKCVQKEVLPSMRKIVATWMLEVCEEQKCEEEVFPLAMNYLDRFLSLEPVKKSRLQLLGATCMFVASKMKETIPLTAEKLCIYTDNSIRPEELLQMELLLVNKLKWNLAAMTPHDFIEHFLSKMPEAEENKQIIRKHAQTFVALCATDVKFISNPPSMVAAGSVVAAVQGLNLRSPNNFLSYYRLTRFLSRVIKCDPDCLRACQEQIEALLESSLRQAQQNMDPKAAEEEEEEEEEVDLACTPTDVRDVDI

IC50 [1] | SMILES | other results
0.621 µM | CC1(C)Cc2cccc3c(C4=C(c5cn6c7c(cccc57)CNCC6)C(=O)NC4=O)cn(c23)C1 | 
0.537 µM | CC1(C)CCn2cc(C3=C(c4cn5c6c(cccc46)CNCC5)C(=O)NC3=O)c3cccc1c32 | 
0.349 µM | CC1(C)CCc2cccc3c(C4=C(c5cn6c7c(cccc57)CNCC6)C(=O)NC4=O)cn1c23 | 
0.605 µM | O=C1NC(=O)c2c1c1c3cccc4c3n(c1c1c2c2cccc3c2n1CCCNC3)CCC4 [drawing 39] | 
0.143 µM | O=C1NC(=O)C(c2cn3c4c(cccc24)NCCC3)=C1c1cn2c3c(cccc13)CCC2 [drawing 43] | 

More lines, now with the values behind:

SMILES | IC50 [1] | other results
CC1(C)Cc2cccc3c4c5c(c6c7cccc8c7n(c6c4n(c23)C1)CCNC8)C(=O)NC5=O | 0.051 µM | 
CC1(C)CCn2c3c1cc(F)cc3c1c3c(c4c5cccc6c5n(c4c12)CCNC6)C(=O)NC3=O | 0.413 µM | 
CC1(C)CCn2cc(C3=C(c4cn5c6c(cccc46)CNCC5)C(=O)NC3=O)c3cc(F)cc1c32 | 0.186 µM | 
Cl.O=C1NC(=O)c2c1c1c3cccc4c3n(c1c1c2c2cccc3c2n1CCNC3)CCC4 [Example 5] |  | cell cycle arrest [2]: arrest cells in the G1 phase of the cell cycle; inhibition of Ser-780 pRb phosphorylation [3]: inhibit Rb (retinoblastoma protein) phosphorylation; cell growth inhibition [4]: inhibit cell growth
CN1CC[C@H](c2c(O)cc(O)c3c(=O)cc(-c4ccccc4Cl)oc23)[C@H](O)C1 [Flavopiridol] |  | concentration at which protein kinase A is inhibited [5]: ≥ 10 μM/L; concentration at which protein kinase C is inhibited [6]: ≥ 10 μM/L
O=C1NC(=O)c2c1c1c3cccc4c3n(c1c1c2c2cccc3c2n1CCNC3)CCC4 [drawing 40] | 0.0354 µM | 
O=C1NC(=O)c2c1c1c3cccc4c3n(c1c1c2c2cccc3c2n1CCCNC3)CCC4 [drawing 48] |  | IC50 [7]: 0.336 µM
O=C1NC(=O)c2c1c1c3cccc4c3n(c1c1c2c2cccc3c2n1CCNC3)CCC4 [drawing 49] |  | IC50 [7]: 0.0058 µM
O=C1NC(=O)C(c2cn3c4c(cccc24)NCCC3)=C1c1cn2c3c(cccc13)CCC2 [drawing 50] |  | IC50 [7]: 0.196 µM

Reference: US6743785B2, “Agents and methods for the treatment of proliferative diseases” (Eli Lilly and Company, priority 1999, dated 2004)
